Reference: article PMC11790914, “Chemogenomics for steroid hormone receptors (NR3)” (Communications Chemistry, 2025)
Where “and” joins values, the source holds several entries; their conditions need not be identical. Equal entries are not always repeated.

Columns and labels:
[1] = test system: HEK293T cells; assay: Cytotoxicity: necrosis induction (red fluorescent dye for permeable plasma membranes); type: cell-based; conditions: 1 µM, 24 h, necrotic cell count normalized to 0.1% DMSO, single replicates;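 also: compounds applied in DMEM high glucose with 0.1% FCS and 0.1% DMSO, necrotic HEK293T cells counted by red staining of cells whose plasma membranes had become permeable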
[2] = biological target: T1, ABL1 (Homo sapiens, UniProt P00519); assay: Liability panel screening by DSF: ABL1; type: binding; conditions: DSF, 20 µM, n=2; read-out: Mean ΔTM ABL1
T1 construct: made in house
In short: (§1)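 Recombinant protein at 2 µM in 10 mM HEPES pH 7.5 with 500 mM NaCl was mixed with SYPRO Orange (1:1000) and heated at 3 °C/min up to 85 °C. Tm was taken as the Boltzmann-fit inflection point. Shifts are ∆Tm in K from technical duplicates.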

[3] = biological target: T2, AURKA (Homo sapiens, UniProt O14965); assay: Liability panel screening by DSF: AURKA; type: binding; conditions: DSF, 20 µM, n=2; read-out: Mean ΔTM AURKA
T2 construct: made in house
T2 sequence (O14965 1-403): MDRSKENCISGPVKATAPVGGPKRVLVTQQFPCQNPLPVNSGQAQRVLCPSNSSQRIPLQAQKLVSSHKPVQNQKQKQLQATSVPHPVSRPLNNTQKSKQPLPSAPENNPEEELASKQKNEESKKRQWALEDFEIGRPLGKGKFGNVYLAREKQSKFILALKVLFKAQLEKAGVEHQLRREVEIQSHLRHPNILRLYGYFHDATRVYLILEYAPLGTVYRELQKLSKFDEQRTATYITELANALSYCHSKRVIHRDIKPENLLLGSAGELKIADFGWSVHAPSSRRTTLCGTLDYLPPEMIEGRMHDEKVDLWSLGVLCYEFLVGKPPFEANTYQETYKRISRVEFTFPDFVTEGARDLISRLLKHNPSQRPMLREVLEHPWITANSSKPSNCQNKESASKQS
In short: as §1

[4] = biological target: T3, CDK2 (Homo sapiens, UniProt P24941); assay: Liability panel screening by DSF: CDK2; type: binding; conditions: DSF, 20 µM, n=2; read-out: Mean ΔTM CDK2
T3 construct: made in house
In short: as §1

[5] = biological target: T4, FGFR3 (Homo sapiens, UniProt P22607); assay: Liability panel screening by DSF: FGFR3; type: binding; conditions: DSF, 20 µM, n=2; read-out: Mean ΔTM FGFR3
T4 construct: made in house
In short: as §1

[6] = biological target: T5, GSK3B (Homo sapiens, UniProt P49841); assay: Liability panel screening by DSF: GSK3B; type: binding; conditions: DSF, 20 µM, n=2; read-out: Mean ΔTM GSK3B
T5 construct: made in house

[7] = biological target: T6, BRD4 (Homo sapiens, UniProt O60885); assay: Liability panel screening by DSF: BRD4; type: binding; conditions: DSF, 20 µM, n=2; read-out: Mean ΔTM BRD4
T6 construct: This panel comprised ten highly ligandable kinases and bromodomains; made in house
In short: as §1

[8] = biological target: T7, BRPF1 (Homo sapiens, UniProt P55201); assay: Liability panel screening by DSF: BRPF1; type: binding; conditions: DSF, 20 µM, n=2; read-out: Mean ΔTM BRPF1
T7 construct: This panel comprised ten highly ligandable kinases and bromodomains; made in house
T7 sequence (P55201 628-732 limits assumed): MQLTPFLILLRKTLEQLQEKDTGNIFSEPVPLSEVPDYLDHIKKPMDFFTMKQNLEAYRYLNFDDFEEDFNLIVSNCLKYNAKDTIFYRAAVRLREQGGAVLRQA
In short: as §1

[9] = biological target: T8, CSNK1D (Homo sapiens, UniProt P48730); assay: Liability panel screening by DSF: CSNK1D; type: binding; conditions: DSF, 20 µM, n=2; read-out: Mean ΔTM CSNK1D
T8 construct: made in house
In short: as §1

[10] = biological target: T9, MAPK1 (Homo sapiens, UniProt P28482); assay: Liability panel screening by DSF: MAPK1; type: binding; conditions: DSF, 20 µM, n=2; read-out: Mean ΔTM MAPK1
T9 construct: made in house
In short: as §1

[11] = biological target: T10, TRIM24 (Homo sapiens, UniProt O15164); assay: Liability panel screening by DSF: TRIM24; type: binding; conditions: DSF, 20 µM, n=2; read-out: Mean ΔTM TRIM24
T10 construct: This panel comprised ten highly ligandable kinases and bromodomains; made in house
T10 sequence (O15164 899-1004 limits assumed): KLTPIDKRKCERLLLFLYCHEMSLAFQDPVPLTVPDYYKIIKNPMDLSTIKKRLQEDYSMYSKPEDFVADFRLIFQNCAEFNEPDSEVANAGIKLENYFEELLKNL
In short: as §1

[12] = test system: NF-κB activity in HEK293 NF-κB reporter cells; assay: NF-kB activity assay (GFP reporter, ionomycin/PMA); type: cell-based; conditions: for Mean NFκB response: n=3; for NF-κB activity (inflammatory response to ionomycin/PMA): HEK293 NF-κB reporter cells, compounds at recommended concentrations, imaged over 24 h, n = 3
In short: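 HEK293 NF-κB GFP reporter cells given compound in 0.1% DMSO for 4 h, then stimulated with ionomycin 100 ng/mL plus PMA 10 ng/mL. Imaged every 90 min over 24 h; GFP-positive cell count normalized to confluence, three independent biological replicates.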

[13] = test system: ATF6 activity in Hela ATF6 reporter cells; assay: Endoplasmic reticulum stress assay (ATF6 Renilla luciferase reporter, tunicamycin); type: cell-based; conditions: Homo sapiens, HeLa, 1 µM, single replicates n=1 to n=5; read-out: ER stress [rel. ATF6 activity]
In short: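 HeLa ATF6 Renilla reporter cells were pretreated 4 h with compounds in 0.1% DMSO, then stimulated with tunicamycin (100 ng/mL) for 18 h. Renilla luminescence (DualGlo) was normalized to 0.1% DMSO control; five independent experiments.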

[14] = test system: NR3A1 (ERα); conditions: cited from earlier work
[15] = test system: NR3A2 (ERβ); conditions: cited from earlier work
[16] = test system: HEK293T cells; assay: Cytotoxicity: apoptosis induction (caspase-3/7 DEVD fluorogenic DNA dye); conditions: 1 µM; HEK293T, 24 h; apoptotic cell count normalized to 0.1% DMSO; single replicates
[17] = known off-target outside the NR family at the recommended concentration; ref Supplementary Table 1 (superscript references); cited from earlier work
[18] = test system: HEK293T cells; assay: Cytotoxicity: metabolic activity (WST-8 / CCK-8 assay); conditions: 1 µM; HEK293T, 24 h; WST-8; normalized to 0.1% DMSO; single replicates
[19] = test system: HEK293T cells; assay: Cytotoxicity: growth-rate (change in confluence over 24 h); conditions: 1 µM, normalized to 0.1% DMSO control, single replicates (n=1...)

T1 sequence (P00519 whole entry, species assumed): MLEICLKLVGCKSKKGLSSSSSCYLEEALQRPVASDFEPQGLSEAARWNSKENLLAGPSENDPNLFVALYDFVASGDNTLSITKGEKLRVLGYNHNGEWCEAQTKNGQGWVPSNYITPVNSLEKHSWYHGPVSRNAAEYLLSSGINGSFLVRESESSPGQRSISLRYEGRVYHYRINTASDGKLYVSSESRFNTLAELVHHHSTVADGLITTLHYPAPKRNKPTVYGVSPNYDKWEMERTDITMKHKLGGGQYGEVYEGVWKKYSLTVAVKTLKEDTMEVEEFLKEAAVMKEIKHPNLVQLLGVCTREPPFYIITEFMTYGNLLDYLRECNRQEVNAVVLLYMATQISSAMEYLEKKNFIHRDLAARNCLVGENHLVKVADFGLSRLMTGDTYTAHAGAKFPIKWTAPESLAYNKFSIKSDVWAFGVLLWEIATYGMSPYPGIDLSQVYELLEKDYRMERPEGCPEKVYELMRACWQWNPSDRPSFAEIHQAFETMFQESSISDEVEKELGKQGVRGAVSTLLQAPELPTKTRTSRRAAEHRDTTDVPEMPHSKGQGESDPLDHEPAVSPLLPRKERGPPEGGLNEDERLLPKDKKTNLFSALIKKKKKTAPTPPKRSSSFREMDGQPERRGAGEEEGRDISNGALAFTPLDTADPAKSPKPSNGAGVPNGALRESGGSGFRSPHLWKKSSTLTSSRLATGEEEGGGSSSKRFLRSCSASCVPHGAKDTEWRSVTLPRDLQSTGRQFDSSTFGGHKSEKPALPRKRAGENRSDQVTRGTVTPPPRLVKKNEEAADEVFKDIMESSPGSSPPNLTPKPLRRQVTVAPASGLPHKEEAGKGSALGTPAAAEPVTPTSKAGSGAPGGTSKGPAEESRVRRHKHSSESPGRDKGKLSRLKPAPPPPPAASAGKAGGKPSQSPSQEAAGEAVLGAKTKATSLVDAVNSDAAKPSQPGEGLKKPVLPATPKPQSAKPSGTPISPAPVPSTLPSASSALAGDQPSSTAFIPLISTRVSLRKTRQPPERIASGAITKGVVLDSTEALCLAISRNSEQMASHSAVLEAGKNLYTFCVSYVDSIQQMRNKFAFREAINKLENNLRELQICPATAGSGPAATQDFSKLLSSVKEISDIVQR
T9 sequence (P28482 whole entry, species assumed): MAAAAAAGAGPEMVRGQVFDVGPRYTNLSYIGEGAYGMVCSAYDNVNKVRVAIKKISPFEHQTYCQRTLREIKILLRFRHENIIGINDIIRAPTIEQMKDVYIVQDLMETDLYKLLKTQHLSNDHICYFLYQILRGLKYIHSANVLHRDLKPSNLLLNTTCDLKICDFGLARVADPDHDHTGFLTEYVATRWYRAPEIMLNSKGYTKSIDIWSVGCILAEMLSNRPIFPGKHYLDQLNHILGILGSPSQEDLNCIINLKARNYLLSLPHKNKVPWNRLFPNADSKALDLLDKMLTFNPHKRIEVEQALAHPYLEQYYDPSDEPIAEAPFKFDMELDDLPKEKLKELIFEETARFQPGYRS
T8 sequence (P48730 whole entry, species assumed): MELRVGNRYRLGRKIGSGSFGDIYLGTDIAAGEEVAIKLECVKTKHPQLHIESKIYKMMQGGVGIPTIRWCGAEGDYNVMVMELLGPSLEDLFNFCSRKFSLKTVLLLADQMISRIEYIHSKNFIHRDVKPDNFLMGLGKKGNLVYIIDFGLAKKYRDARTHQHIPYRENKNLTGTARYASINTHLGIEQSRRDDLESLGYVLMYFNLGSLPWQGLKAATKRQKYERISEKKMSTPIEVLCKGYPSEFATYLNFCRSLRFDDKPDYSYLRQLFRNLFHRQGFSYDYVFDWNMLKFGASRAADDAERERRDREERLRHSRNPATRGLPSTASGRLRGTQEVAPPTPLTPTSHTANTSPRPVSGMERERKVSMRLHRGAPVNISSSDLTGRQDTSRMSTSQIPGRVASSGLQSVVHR
T4 sequence (P22607 23-806, species assumed): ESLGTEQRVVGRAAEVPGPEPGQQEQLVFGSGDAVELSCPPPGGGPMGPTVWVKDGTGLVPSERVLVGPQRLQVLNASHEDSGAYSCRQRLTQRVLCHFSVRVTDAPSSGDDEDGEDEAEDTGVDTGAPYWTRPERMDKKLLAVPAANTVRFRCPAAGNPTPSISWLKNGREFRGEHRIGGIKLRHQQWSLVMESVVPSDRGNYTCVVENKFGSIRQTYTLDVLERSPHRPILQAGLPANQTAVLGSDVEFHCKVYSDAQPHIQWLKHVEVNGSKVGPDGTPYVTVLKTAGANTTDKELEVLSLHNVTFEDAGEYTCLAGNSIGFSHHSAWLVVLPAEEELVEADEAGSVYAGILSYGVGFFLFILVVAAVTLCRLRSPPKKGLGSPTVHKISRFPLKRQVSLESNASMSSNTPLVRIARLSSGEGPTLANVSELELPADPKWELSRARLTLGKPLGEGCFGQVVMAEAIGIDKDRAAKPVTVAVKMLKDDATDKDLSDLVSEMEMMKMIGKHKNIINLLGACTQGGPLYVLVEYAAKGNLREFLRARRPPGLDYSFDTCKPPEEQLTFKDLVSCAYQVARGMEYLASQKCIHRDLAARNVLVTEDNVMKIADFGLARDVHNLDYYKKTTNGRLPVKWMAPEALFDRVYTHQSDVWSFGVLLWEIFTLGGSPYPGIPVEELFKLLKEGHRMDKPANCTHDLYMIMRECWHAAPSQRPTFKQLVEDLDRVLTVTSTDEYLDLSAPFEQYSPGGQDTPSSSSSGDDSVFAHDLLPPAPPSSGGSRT
T5 sequence (P49841 whole entry, species assumed): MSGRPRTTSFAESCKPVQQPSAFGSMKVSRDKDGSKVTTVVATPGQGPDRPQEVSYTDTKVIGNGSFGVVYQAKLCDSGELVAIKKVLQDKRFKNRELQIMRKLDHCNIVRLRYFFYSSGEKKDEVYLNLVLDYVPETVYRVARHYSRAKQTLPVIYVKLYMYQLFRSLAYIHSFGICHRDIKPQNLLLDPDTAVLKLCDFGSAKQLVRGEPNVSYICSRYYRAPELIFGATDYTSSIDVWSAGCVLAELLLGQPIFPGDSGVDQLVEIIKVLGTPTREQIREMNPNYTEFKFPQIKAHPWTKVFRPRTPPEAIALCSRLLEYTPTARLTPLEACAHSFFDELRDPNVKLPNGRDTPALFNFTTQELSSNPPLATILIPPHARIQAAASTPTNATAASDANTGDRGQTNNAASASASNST

Structure (SMILES) | Necrosis induction [NI] [1] | ΔTm at 20 µM [2] | ΔTm at 20 µM [3] | ΔTm at 20 µM [4] | ΔTm at 20 µM [5] | ΔTm at 20 µM [6] | ΔTm at 20 µM [7] | ΔTm at 20 µM [8] | ΔTm at 20 µM [9] | ΔTm at 20 µM [10] | Mean NFκB response ([12]; 1 µM, 1,5 h) | Mean NFκB response ([12]; 1 µM, 4,5 h) | Mean NFκB response ([12]; 1 µM, 7,5 h) | Mean NFκB response ([12]; 1 µM, 10,5 h) | Mean NFκB response ([12]; 1 µM, 13,5 h) | Mean NFκB response ([12]; 1 µM, 16,6 h) | Mean NFκB response ([12]; 1 µM, 19,5 h) | Mean NFκB response ([12]; 1 µM, 22,5 h) | Mean NFκB response ([12]; 1 µM, 3 h) | Mean NFκB response ([12]; 1 µM, 6 h) | also measured
Cc1c(-c2ccc(O)cc2)n(Cc2ccc(OCCN3CCCCCC3)cc2)c2ccc(O)cc12 [Bazedoxifene] | 1.13 and 0.86 and 0.78 and 1.09 | -0.21 °C | 0.09 °C | -0.64 °C | -0.69 °C | 0.0162 °C | 0.43 °C | -0.07 °C | 0.42 °C | 0.08 °C | 2824.44 GFP+-cells/confluence ∙ 1000 | 3791.70 GFP+-cells/confluence ∙ 1000 | 7416.63 GFP+-cells/confluence ∙ 1000 | 14689.03 GFP+-cells/confluence ∙ 1000 | 19525.92 GFP+-cells/confluence ∙ 1000 | 23266.53 GFP+-cells/confluence ∙ 1000 | 26260.00 GFP+-cells/confluence ∙ 1000 | 28446.67 GFP+-cells/confluence ∙ 1000 | 3117.94 GFP+-cells/confluence ∙ 1000 | 5066.30 GFP+-cells/confluence ∙ 1000 | ΔTm at 20 µM [11]: -2.05 °C; Mean NFκB response ([12]; 1 µM, 9 h): 11293.98 GFP+-cells/confluence ∙ 1000; Mean NFκB response ([12]; 1 µM, 12 h): 17230.27 GFP+-cells/confluence ∙ 1000; Mean NFκB response ([12]; 1 µM, 15 h): 21680.82 GFP+-cells/confluence ∙ 1000; Mean NFκB response ([12]; 1 µM, 18 h): 24611.25 GFP+-cells/confluence ∙ 1000; Mean NFκB response ([12]; 1 µM, 21 h): 27073.33 GFP+-cells/confluence ∙ 1000; Mean NFκB response ([12]; 1 µM, 24 h): 29033.33 GFP+-cells/confluence ∙ 1000; NF-κB activity (inflammatory response to ionomycin/PMA) [12]: reducing the inflammatory response; activity at 1 µM [13]: 100%; EC50 ([14]; read-out: Potency [nM] EC50, NR3A1 (ERα)): 26 ± 14 nM; EC50 ([15]; (lit.), ref Supplementary Table 1, read-out: Potency [nM] EC50, NR3A2 (ERβ)): 99 ± 53 nM; Apoptosis induction [AI] [16]: 0.65 and 1.17 and 0.76 and 1.01 and 0.89 and 1.49
C[C@]12CC[C@@H]3c4ccc(O)cc4C[C@@H](CCCCCCCCC[S+]([O-])CCCC(F)(F)C(F)(F)F)[C@H]3[C@@H]1CC[C@@H]2O (stereo partly shown) [Fulvestrant] | 0.62 and 0.70 and 0.56 and 0.98 | -4.09 °C | -0.16 °C | 0 °C | -3.24 °C | 0.72 °C | -2.93 °C | 0 °C | -4.77 °C | -12 °C | 2679.37 GFP+-cells/confluence ∙ 1000 | 3148.36 GFP+-cells/confluence ∙ 1000 | 4671.22 GFP+-cells/confluence ∙ 1000 | 6295.62 GFP+-cells/confluence ∙ 1000 | 7325.42 GFP+-cells/confluence ∙ 1000 | 8293.33 GFP+-cells/confluence ∙ 1000 | 8696.67 GFP+-cells/confluence ∙ 1000 | 9540.00 GFP+-cells/confluence ∙ 1000 | 2744.06 GFP+-cells/confluence ∙ 1000 | 3642.03 GFP+-cells/confluence ∙ 1000 | Mean NFκB response ([12]; 1 µM, 9 h): 5613.40 GFP+-cells/confluence ∙ 1000; Mean NFκB response ([12]; 1 µM, 12 h): 7011.92 GFP+-cells/confluence ∙ 1000; Mean NFκB response ([12]; 1 µM, 15 h): 8097.95 GFP+-cells/confluence ∙ 1000; Mean NFκB response ([12]; 1 µM, 18 h): 8436.67 GFP+-cells/confluence ∙ 1000; Mean NFκB response ([12]; 1 µM, 21 h): 9413.33 GFP+-cells/confluence ∙ 1000; Mean NFκB response ([12]; 1 µM, 24 h): 10080.00 GFP+-cells/confluence ∙ 1000; NF-κB activity (inflammatory response to ionomycin/PMA) [12]: reducing the inflammatory response; activity at 1 µM [13]: 89%; rel. activity from literature, NR3A1 (ERα): % ERα remaining ([14]; ERα remaining (degrader), ref Supplementary Table 1): 18%; IC50 ([15]; (lit.), ref Supplementary Table 1, read-out: Potency [nM] IC50, NR3A2 (ERβ)): 4 nM; rel. activity from literature, NR3A2 (ERβ): % rem. act. of estradiol ([15]; rem. act. of estradiol): 9%; Other off-target at recom. conc. [17]: sEH; Metabolic activity [MA] [18]: 0.95 (2×) and 1.00 and 1.04 and 1.03 and 0.99 and 1.20 (2×); Growth rate [GR] [19]: 0.67 and 2.29 and 0.97 and 0.95 and 0.64 and 0.78 and 0.76 and 0.84 and 1.55 and 3.07; Apoptosis induction [AI] [16]: 0.62 (2×) and 0.98 and 0.59 and 0.64 and 0.41
